{
  "source": "patent US20140127292A1",
  "about": "“PHARMACEUTICAL COMPOSITIONS FOR THE ORAL ADMINISTRATION OF HEPARIN OR DERIVATIVES THEREOF” (Cosmo Technologies Limited, priority 2001, published 2014)",
  "test_system": "colitis induced by trinitrobenzene sulfonic acid (TNBS)",
  "experiment": "in vivo test: TNBS-induced colitis in rats, intracolonic treatment",
  "conditions": "for Colon weight: 10 cm distal colon; for Colon weight / Macroscopic score / Necrosis areas (Mucosal Damage Area, MDA): day 4; for Body weight variation / Final body weight: days 1-3, day 4; for Macroscopic score / Necrosis areas (Mucosal Damage Area, MDA): distal colon",
  "description": "70 Wister male rats were kept fasted for 20 hours before the induction of colitis. In the morning of the experiment (day 0), the rats were injected with a 40% solution of ethanol containing 30 mg of trinitrobenzene sulfonic acid (TNBS) by means of a single intracolonic injection. On days 1, 2 and 3 after the induction of colitis, Dalteparin sodium suspended in 0.25 mL of a 1% sodium cholate in saline (0.3 mg/rat, 0.6 mg/rat and 0.9 mg/rat), or 0.25 mL of vehicle (1% sodium cholate in saline) were instilled intracolonically. An additional group constituted by 4 untreated rats was also included. On day 4 from the induction of colitis, animals were euthanized and autopsy was performed. The colon have been isolated and 10 cm of the distal portion have been resected and weighted. […] The results, summarized in the table below, have been compared with those obtained from the control animals.",
  "key": {"[1]": {"conditions": "0.6 mg/rat/die intracolonic, listed as dalteparin sodium"}},
  "data": [
    {"substance": "Dalteparin sodium", "values": [
      {"measurement": "Mortality", "setting": "0.3 mg/rat/die intracolonic", "result": 0, "unit": "%"},
      {"measurement": "Colon weight", "setting": "0.3 mg/rat/die intracolonic", "result": "1.72 ± 0.30", "unit": "g"},
      {"measurement": "Colon weight", "setting": "0.3 mg/rat/die intracolonic, listed as dalteparin sodium", "result": "1.72 ± 0.30", "unit": "g"},
      {"measurement": "Body weight variation", "setting": "0.3 mg/rat/die intracolonic", "result": "−21", "unit": "%"},
      {"measurement": "Final body weight", "setting": "0.3 mg/rat/die intracolonic", "result": "166 ± 14", "unit": "g"},
      {"measurement": "Macroscopic score", "setting": "0.3 mg/rat/die intracolonic", "result": "5.6 ± 0.52"},
      {"measurement": "Necrosis areas (Mucosal Damage Area, MDA)", "setting": "0.3 mg/rat/die intracolonic", "result": "463.4 ± 89.6", "unit": "mm^2"},
      {"measurement": "Mortality", "setting": "0.6 mg/rat/die intracolonic", "result": 10, "unit": "%"},
      {"measurement": "Colon weight", "setting": "0.6 mg/rat/die intracolonic", "result": "1.80 ± 0.38", "unit": "g"},
      {"measurement": "Body weight variation", "setting": "0.6 mg/rat/die intracolonic", "result": "−15", "unit": "%"},
      {"measurement": "Final body weight", "setting": "0.6 mg/rat/die intracolonic", "result": "180 ± 17", "unit": "g"},
      {"measurement": "Macroscopic score", "setting": "0.6 mg/rat/die intracolonic", "result": "4.9 ± 1.05"},
      {"measurement": "Necrosis areas (Mucosal Damage Area, MDA)", "setting": "0.6 mg/rat/die intracolonic", "result": "309.9 ± 155.8", "unit": "mm^2"},
      {"measurement": "Macroscopic score", "setting": "[1]", "result": "4.9±1.05"},
      {"measurement": "Necrosis areas (Mucosal Damage Area, MDA)", "setting": "[1]", "result": "309.9±155.8", "unit": "mm^2"},
      {"measurement": "Mortality", "setting": "0.9 mg/rat/die intracolonic", "result": 10, "unit": "%"},
      {"measurement": "Colon weight", "setting": "0.9 mg/rat/die intracolonic", "result": "1.76 ± 0.22", "unit": "g"},
      {"measurement": "Colon weight", "setting": "0.9 mg/rat/die intracolonic, listed as dalteparin sodium", "result": "1.76 ± 0.22", "unit": "g"},
      {"measurement": "Body weight variation", "setting": "0.9 mg/rat/die intracolonic", "result": "−17", "unit": "%"},
      {"measurement": "Final body weight", "setting": "0.9 mg/rat/die intracolonic", "result": "176 ± 15", "unit": "g"},
      {"measurement": "Macroscopic score", "setting": "0.9 mg/rat/die intracolonic", "result": "5.8 ± 0.44"},
      {"measurement": "Necrosis areas (Mucosal Damage Area, MDA)", "setting": "0.9 mg/rat/die intracolonic", "result": "492.5 ± 104.6", "unit": "mm^2"},
      {"measurement": "overall effect of treatment on the considered parameters", "setting": "0.3, 0.6 and 0.9 mg/rat intracolonic, versus vehicle control group", "result": "effective in reducing all the considered parameters"}
    ]}
  ]
}
